The results in this text go back to PubChem BioAssay AID200 (DTP/NCI, 2004).

Values joined by “and” are separate entries in the source; they are usually repeats but may differ in a detail not shown here. Identical values can stand only once. Inconclusive results and toxic doses are left out.

The subject of the assay is B6C3F1 mice, B16 melanoma ip, median survival T/C. The assay can be described thus: NCI In Vivo Anticancer Drug Screen. Data for tumor model B16 Melanoma (intraperitoneal) in B6C3F1 mice. The settings on record: endpoint: median survival time, schedule: Q01DX009 (ip), higher = longer survival. Summed up: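 Readout: survival or tumor size in treated mice relative to vehicle controls (T/C). Model uses transplantable tumors grown in mice.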

Setting [1] is: dose: 25.0 mg/kg/injection, vehicle: saline with Tween-80.
The mark [2] stands for this setting: dose: 50.0 mg/kg/injection, vehicle: saline with Tween-80.
[3] abbreviates: dose: 25.0 mg/kg/injection, vehicle: Klucel (hydroxypropylcellulose) (HPC).
The mark [4] stands for this setting: dose: 50.0 mg/kg/injection, vehicle: Klucel (hydroxypropylcellulose) (HPC).
[5] abbreviates: dose: 100.0 mg/kg/injection, vehicle: Klucel (hydroxypropylcellulose) (HPC).
The mark [6] stands for this setting: dose: 100.0 mg/kg/injection, vehicle: saline with Tween-80.
Setting [7] is: dose: 12.5 mg/kg/injection, vehicle: Klucel (hydroxypropylcellulose) (HPC).
The mark [8] stands for this setting: dose: 200.0 mg/kg/injection, vehicle: Klucel (hydroxypropylcellulose) (HPC).
Setting [9] is: dose: 6.25 mg/kg/injection, vehicle: Klucel (hydroxypropylcellulose) (HPC).
Where [10] appears, read: dose: 400.0 mg/kg/injection, vehicle: Klucel (hydroxypropylcellulose) (HPC).

For `C(CC1CO1)C1CO1` (configuration not stated), the T/C was 94 % of control (dose: 2.5 mg/kg/injection, vehicle: Klucel (hydroxypropylcellulose) (HPC)); 101 % of control (dose: 5.0 mg/kg/injection, vehicle: Klucel (hydroxypropylcellulose) (HPC)); 101 % of control (dose: 10.0 mg/kg/injection, vehicle: Klucel (hydroxypropylcellulose) (HPC)); 111 % of control (dose: 20.0 mg/kg/injection, vehicle: Klucel (hydroxypropylcellulose) (HPC)); 107 % of control (dose: 40.0 mg/kg/injection, vehicle: Klucel (hydroxypropylcellulose) (HPC)); 98 % of control (dose: 80.0 mg/kg/injection, vehicle: Klucel (hydroxypropylcellulose) (HPC)).

As to `Cc1oc2c(C)c3oc(=O)cc(C)c3cc2c1CCl`, the T/C is, setting by setting: (dose: 12.5 mg/kg/injection, vehicle: saline with Tween-80) 91 % of control and 97 % of control; under setting [1], 87 % of control and 88 % of control (2×); under setting [2], 102 % of control.

For `CCCCCNc1ncnc2c(C)[nH]nc12`, the T/C runs as follows: under setting [3], 100 % of control; under setting [4], 91 % of control; under setting [5], 86 % of control.

`CCCCC/C(C=C(C#N)C#N)=C/c1ccccc1`: the T/C under setting [1] was 111 % of control, the T/C under setting [2] was 106 % of control and the T/C under setting [6] is 123 % of control.

In the case of `O=C1CC2(C(=O)N1CN1CCCCC1)c1ccccc1-c1ccccc12`, the T/C by setting is: under setting [7], 91 % of control; under setting [3], 95 % of control; under setting [4], 95 % of control; under setting [5], 110 % of control; under setting [8], 92 % of control.

With `Nc1ncnc2c1ncn2C1OC(CO)CC1O` (configuration not stated), the T/C is 121 % of control (dose: 37.5 mg/kg/injection, vehicle: Klucel (hydroxypropylcellulose) (HPC)) and 123 % of control (dose: 75.0 mg/kg/injection, vehicle: Klucel (hydroxypropylcellulose) (HPC)).

As for `Cc1c2ccccc2c(C)c2c1cc(C(=O)O)c1ccccc12`, the T/C by setting is: (dose: 25.0 mg/kg/injection, vehicle: sodium bicarbonate) 99 % of control; (dose: 50.0 mg/kg/injection, vehicle: sodium bicarbonate) 105 % of control; (dose: 100.0 mg/kg/injection, vehicle: sodium bicarbonate) 108 % of control; (dose: 200.0 mg/kg/injection, vehicle: sodium bicarbonate) 109 % of control; (dose: 400.0 mg/kg/injection, vehicle: sodium bicarbonate) 101 % of control.

As for `CC(=O)OC1=NC(C)c2c1cc(OC(C)=O)[nH]c2=O` (configuration not stated), the T/C reads like this: under setting [9], 116 % of control and 105 % of control; under setting [7], 110 % of control and 98 % of control; under setting [3], 113 % of control and 100 % of control; under setting [4], 90 % of control and 101 % of control; under setting [5], 88 % of control.

Regarding `CS(=O)(=O)OCCn1c(=O)n(CCOS(C)(=O)=O)c(=O)n(CCOS(C)(=O)=O)c1=O`, the T/C by setting is: under setting [5], 97 % of control; under setting [8], 95 % of control; under setting [10], 86 % of control.

In the case of `Cc1c(C)c2c(c(C)c1OC(=O)CCC(=O)O)CCC(C)(CCCC(C)CCCC(C)CCCC(C)C)O2` (configuration not stated), the T/C is 96 % of control (dose: 25.0 mg/kg/injection, vehicle: distilled water + Tween-80 + alcohol); 112 % of control (dose: 50.0 mg/kg/injection, vehicle: distilled water + Tween-80 + alcohol); 114 % of control (dose: 100.0 mg/kg/injection, vehicle: distilled water + Tween-80 + alcohol); 86 % of control (dose: 200.0 mg/kg/injection, vehicle: distilled water + Tween-80 + alcohol).

With `Cc1cc(O)c(Cl)cc1Cl`, the T/C runs as follows: (dose: 100.0 mg/kg/injection, vehicle: saline) 92 % of control; (dose: 200.0 mg/kg/injection, vehicle: saline) 87 % of control; (dose: 400.0 mg/kg/injection, vehicle: saline) 90 % of control.

On to `Nc1cc(Cl)c(N=Nc2ccccc2)c(N)n1`, for which the T/C is 89 % of control under setting [6] and 90 % of control (dose: 200.0 mg/kg/injection, vehicle: saline with Tween-80).

For `ClCc1ccc2ccccc2n1`, the T/C runs as follows: under setting [1], 107 % of control; under setting [2], 102 % of control.

On to `COC(=O)C(CSCc1ccccc1)NC(=O)C(C)NC(=O)OCc1ccccc1` (configuration not stated), for which the T/C is, setting by setting: under setting [4], 97 % of control; under setting [5], 90 % of control; under setting [8], 90 % of control.

For `C[C@]12CC[C@@H]3c4ccc(OC(=O)Cc5ccc(N(CCCl)CCCl)cc5)cc4CC[C@H]3[C@@H]1CC[C@@H]2OC(=O)Cc1ccc(N(CCCl)CCCl)cc1`, the T/C under setting [7] was 104 % of control; the T/C under setting [3] was 92 % of control and 103 % of control; the T/C under setting [4] was 121 % of control and 103 % of control; the T/C under setting [5] is 90 % of control and 93 % of control; the T/C under setting [8] was 104 % of control; the T/C under setting [10] is 92 % of control and 103 % of control.

As to `CCCNC1=C(C)C(=O)C2=C(C1=O)[C@H](COC(N)=O)[C@]1(OC)[C@@H]3N[C@@H]3CN21`, the T/C was 104 % of control (dose: 0.39 mg/kg/injection, vehicle: Klucel (hydroxypropylcellulose) (HPC)); 115 % of control (dose: 0.39 mg/kg/injection, vehicle: saline); 105 % of control (dose: 0.78 mg/kg/injection, vehicle: Klucel (hydroxypropylcellulose) (HPC)); 105 % of control (dose: 1.56 mg/kg/injection, vehicle: Klucel (hydroxypropylcellulose) (HPC)); 155 % of control (dose: 1.56 mg/kg/injection, vehicle: saline); 96 % of control (dose: 3.12 mg/kg/injection, vehicle: Klucel (hydroxypropylcellulose) (HPC)). Also, the T/C (dose: 3.12 mg/kg/injection, vehicle: saline) is 173 % of control and the T/C under setting [9] was 111 % of control.

Regarding `CN(C)c1ccc2c(NCCCCCCNc3ccnc4cc(N(C)C)ccc34)ccnc2c1`, the T/C was 94 % of control (dose: 1.56 mg/kg/injection, vehicle: distilled water + alcohol); 92 % of control (dose: 3.12 mg/kg/injection, vehicle: distilled water + alcohol); 106 % of control (dose: 6.25 mg/kg/injection, vehicle: distilled water + alcohol); 116 % of control (dose: 12.5 mg/kg/injection, vehicle: distilled water + alcohol); 112 % of control (dose: 25.0 mg/kg/injection, vehicle: distilled water + alcohol).

For `CN=C(NC#N)NCCSCc1nc[nH]c1C`, the T/C is 114 % of control under setting [7]; 96 % of control under setting [3]; 104 % of control under setting [4]; 101 % of control under setting [5]; 102 % of control under setting [8]; 98 % of control under setting [10].

For `CN(C)N=Nc1cccc2c1N(C)c1ccc(F)cc1S2`, the T/C reads like this: (dose: 6.25 mg/kg/injection, vehicle: other) 103 % of control; (dose: 12.5 mg/kg/injection, vehicle: other) 100 % of control; (dose: 25.0 mg/kg/injection, vehicle: other) 108 % of control; (dose: 50.0 mg/kg/injection, vehicle: other) 95 % of control; (dose: 100.0 mg/kg/injection, vehicle: other) 102 % of control.

For `CC(C)(C)OC(=O)NC(CCCNC(=O)OCc1ccccc1)C(=O)O` (configuration not stated), the T/C was 110 % of control under setting [5], 104 % of control under setting [8] and 98 % of control under setting [10].
